Assay results: PMC10572347, “Structure–Activity Relationships and Antiplasmodial Potencies of Novel 3,4-Disubstituted 1,2,5-Oxadiazoles” (International Journal of Molecular Sciences, 2023)
Read-outs that look alike come from different tables or passages of the source.

Experiments:
P. falciparum NF54 = assay: In vitro microplate assay against P. falciparum (3H-hypoxanthine incorporation); format: cell-based, Plasmodium falciparum; conditions: for S.I. = IC50 (Cyt.)/IC50 (P.f.NF54): L-6 cells vs P.f. NF54; for IC50: average of four determinations, read-out: P.f. NF54 IC50
Description: In vitro activity against the erythrocytic stages of P. falciparum was determined using a ^3H-hypoxanthine incorporation assay, using the drug sensitive NF54 strain [37]. […] The 96-well plates were incubated in a humidified atmosphere at 37 °C, 4% CO2, 3% O2 and 93% N2. After 48 h, 0.05 mL of ^3H-hypoxanthine (=0.5 µCi) was added to each well of the plate. The plates were incubated for a further 24 h under the same conditions. The plates were then harvested with a Betaplate cell harvester (Wallac, Zurich, Switzerland). The red blood cells were transferred onto a glass fiber filter and washed with distilled water. The dried filters were inserted into a plastic foil with 10 mL of scintillation fluid and counted in a Betaplate liquid scintillation counter (Wallac, Zurich, Switzerland). The IC50 values were calculated from sigmoidal inhibition curves by linear regression using Microsoft Excel. Chloroquine (Sigma C6628) was used as control.

[1] = In vitro cytotoxicity with L-6 cells (resazurin); format: cell-based, rat; conditions: rat
Description: Serial drug dilutions of 11 3-fold dilution steps covering a range from 100 to 0.002 μg/mL were prepared. After 70 h of incubation, the plates were inspected under an inverted microscope to assure the growth of the controls and sterile conditions. […] The plates were read with a Spectramax Gemini XS microplate fluorometer (Molecular Devices Cooperation, Sunnyvale, CA, USA) using an excitation wavelength of 536 nm and an emission wavelength of 588 nm. The IC50 values were calculated by linear regression from the sigmoidal dose inhibition curves using SoftmaxPro software Version 8.2.1 (Molecular Devices Cooperation, Sunnyvale, CA, USA). Podophyllotoxin (Sigma P4405) was used as control.

CYP3A4 = CYP3A4 (Homo sapiens, UniProt P08684); assay: Cytochrome P450 3A4 inhibition assay (P450-Glo, Luciferin-IPA); conditions: recombinant human CYP3A4 Supersomes (+ oxidoreductase + b5), pH 7.4, probe Luciferin-IPA
Description: The CYP3A4 inhibition assay was performed using 96-well white plates (Greiner Bio-One) at a pH of 7.4. […] Stock solutions were further diluted to a final concentration of 20 µM using water (HPLC grade). The luciferin IPA stock solution (3 mM) was diluted to a final concentration of 0.3 mM using water (HPLC grade). The CYP3A4 reaction mixture was prepared by mixing water (HPLC grade) with potassium phosphate buffer (1 M), luciferin IPA (0.3 mM) and CYP3A4 membrane (1 pmol/µL). The control reaction mixture was prepared using water (HPLC grade), potassium phosphate buffer (1 M), luciferin IPA (0.3 mM) and membrane without CYP activity (1 pmol/µL). Solutions A and B of the NADPH regeneration system were mixed and HPLC grade water was added. The reconstituted luciferin detection reagent was prepared by mixing the reconstituted buffer with esterase with the luciferin detection reagent. Then, solutions of test compounds and standard were added to the wells of the 96-well white plate; each was tested in triplicate. The CYP3A4 reaction mixture was added to each well and the plate was incubated for 10 min at room temperature. After that, the NADPH regeneration system was added, inducing the reaction followed by an incubation time of 10 min at ambient temperature. By adding the reconstituted luciferin detection reagent, the reaction was terminated and a luminescent signal was formed. Luminescence was measured by a SpectraMax M3 UV plate reader (Molecular Devices). The relative light units (RLU) were received from a calibration curve with beetle luciferin. […] The CYP3A4 inhibition (%) was calculated from the RLU.

[2] = Plasmodium falciparum, NF54, chloroquine-sensitive strain NF54
[3] = chloroquine-sensitive strain NF54

Sequence of CYP3A4 (P08684 2-503 limits assumed): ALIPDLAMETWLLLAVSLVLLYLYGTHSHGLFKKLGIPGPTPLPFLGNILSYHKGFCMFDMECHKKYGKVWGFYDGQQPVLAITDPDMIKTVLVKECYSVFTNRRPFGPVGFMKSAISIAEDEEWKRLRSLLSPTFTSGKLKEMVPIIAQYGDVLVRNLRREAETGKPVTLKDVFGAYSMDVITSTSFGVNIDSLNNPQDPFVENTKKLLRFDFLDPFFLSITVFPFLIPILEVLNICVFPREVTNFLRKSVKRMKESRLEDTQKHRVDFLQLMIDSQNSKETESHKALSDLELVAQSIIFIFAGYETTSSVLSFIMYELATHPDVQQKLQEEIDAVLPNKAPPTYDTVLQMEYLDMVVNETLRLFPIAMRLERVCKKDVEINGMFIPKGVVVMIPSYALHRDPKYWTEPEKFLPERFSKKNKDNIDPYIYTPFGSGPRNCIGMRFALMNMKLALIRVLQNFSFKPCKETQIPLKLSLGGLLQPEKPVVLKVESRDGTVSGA

| Compound | S.I. = IC50 (Cyt.)/IC50 (P.f.NF54) (P. falciparum NF54) | IC50 (P. falciparum NF54; [2]) [µM] | IC50 at 72 h [1] [µM] | inhibition at 10 min, 20 µM (CYP3A4) [%] | melting point [°C] | IC50 (P. falciparum NF54; [3]) [µM] |
| --- | --- | --- | --- | --- | --- | --- |
| O=C(Nc1nonc1-c1ccc([N+](=O)[O-])cc1)c1ccccc1 [Compound 37, N-[4-(4-Nitrophenyl)-1,2,5-oxadiazol-3-yl]benzamide] | 6.694 | 1.81 | 12.2 | 46 | 208 |  |
| Cc1cccc(C(=O)Nc2nonc2-c2ccc([N+](=O)[O-])cc2)c1 [Compound 38, 3-Methyl-N-[4-(4-nitrophenyl)-1,2,5-oxadiazol-3-yl]benzamide] |  | 0.99 | 3.47 | 68 |  |  |
| O=C(Nc1nonc1-c1ccc([N+](=O)[O-])cc1)c1cccc(F)c1 [Compound 39, 3-Fluoro-N-[4-(4-nitrophenyl)-1,2,5-oxadiazol-3-yl]benzamide] | 0.809 | 5.33 | 4.31 | 43 |  |  |
| O=C(Nc1nonc1-c1ccc([N+](=O)[O-])cc1)c1cccc(C(F)(F)F)c1 [Compound 40, N-[4-(4-Nitrophenyl)-1,2,5-oxadiazol-3-yl]-3-(trifluoromethyl)benzamide] | 0.473 | 1.98 | 0.936 | 82 | 147 |  |
| O=C(Nc1nonc1-c1cccc([N+](=O)[O-])c1)c1ccccc1 [Compound 41, N-[4-(3-Nitrophenyl)-1,2,5-oxadiazol-3-yl]benzamide] | 0.666 | 9.11 | 6.07 | 82 | 179 |  |
| Cc1cccc(C(=O)Nc2nonc2-c2cccc([N+](=O)[O-])c2)c1 [Compound 42, 3-Methyl-N-[4-(3-nitrophenyl)-1,2,5-oxadiazol-3-yl]benzamide] | 0.464 | 11.5 | 5.32 | 87 | 158 |  |
| O=C(Nc1nonc1-c1cccc([N+](=O)[O-])c1)c1cccc(F)c1 [Compound 43, 3-Fluoro-N-[4-(3-nitrophenyl)-1,2,5-oxadiazol-3-yl]benzamide] | 0.104 | 26.7 | 2.77 | 79 | 174 |  |
| O=C(Nc1nonc1-c1cccc([N+](=O)[O-])c1)c1cccc(C(F)(F)F)c1 [Compound 44, N-[4-(3-Nitrophenyl)-1,2,5-oxadiazol-3-yl]-3-(trifluoromethyl)benzamide] | 0.198 | 8.64 | 1.71 | 94 |  |  |
| O=C(Nc1nonc1-c1ccc(Cl)cc1)c1cccc(F)c1 [Compound 46, N-[4-(4-Chlorophenyl)-1,2,5-oxadiazol-3-yl]-3-fluorobenzamide] | 1.155 | 10.1 | 11.7 |  | 180 |  |
| O=C(Nc1nonc1-c1ccc(Cl)cc1)c1cccc(C(F)(F)F)c1 [Compound 48, N-[4-(4-Chlorophenyl)-1,2,5-oxadiazol-3-yl]-3-(trifluoromethyl)benzamide] | 0.599 | 8.44 to 17.7 | 5.06 |  |  | 8.44 |
| Cc1cccc(C(=O)Nc2nonc2-c2ccc(F)cc2)c1 [Compound 49, N-[4-(4-Fluorophenyl)-1,2,5-oxadiazol-3-yl]-3-methylbenzamide] | 4.328 |  | 35.1 | 84 |  |  |
| COc1ccc(C(=O)Nc2nonc2-c2ccc([N+](=O)[O-])cc2)cc1Cl [Compound 53, 3-Chloro-4-methoxy-N-[4-(4-nitrophenyl)-1,2,5-oxadiazol-3-yl]benzamide] |  | 0.323 | 3.35 |  | 261 |  |
| COc1ccc(C(=O)Nc2nonc2-c2cccc([N+](=O)[O-])c2)cc1Cl [Compound 54, 3-Chloro-4-methoxy-N-[4-(3-nitrophenyl)-1,2,5-oxadiazol-3-yl]benzamide] | 0.932 | 5.92 | 5.52 |  | 248 |  |
| Nc1ccc(-c2nonc2NC(=O)c2ccccc2)cc1 [Compound 55, N-[4-(4-Aminophenyl)-1,2,5-oxadiazol-3-yl]benzamide] | 16.62 | 7.42 | 123 |  | 169 |  |
| Cc1cccc(C(=O)Nc2nonc2-c2ccc(N)cc2)c1 [Compound 56, N-[4-(4-Aminophenyl)-1,2,5-oxadiazol-3-yl]-3-methylbenzamide] | 15.70 | 6.83 | 107 |  | 159 |  |
| Nc1ccc(-c2nonc2NC(=O)c2cccc(F)c2)cc1 [Compound 57, N-[4-(4-Aminophenyl)-1,2,5-oxadiazol-3-yl]-3-fluorobenzamide] | 18.90 | 10.5 | 198 |  | 189 |  |
| Nc1ccc(-c2nonc2NC(=O)c2cccc(C(F)(F)F)c2)cc1 [Compound 58, N-[4-(4-Aminophenyl)-1,2,5-oxadiazol-3-yl]-3-(trifluoromethyl)benzamide] | 3.548 | 9.26 | 32.9 |  | 154 |  |
| COc1ccc(C(=O)Nc2nonc2-c2ccc(N)cc2)cc1Cl [Compound 59, N-[4-(4-Aminophenyl)-1,2,5-oxadiazol-3-yl]-3-chloro-4-methoxybenzamide] | 31.54 | 3.14 | 98.9 |  | 250 |  |
| Nc1cccc(-c2nonc2NC(=O)c2ccccc2)c1 [Compound 60, N-[4-(3-Aminophenyl)-1,2,5-oxadiazol-3-yl]benzamide] | 4.039 |  | 217 |  | 178 |  |
| Nc1cccc(-c2nonc2NC(=O)c2cccc(F)c2)c1 [Compound 62, N-[4-(3-Aminophenyl)-1,2,5-oxadiazol-3-yl]-3-fluorobenzamide] | 6.107 |  | 195 |  | 163 | 32 |
| Nc1cccc(-c2nonc2NC(=O)c2cccc(C(F)(F)F)c2)c1 [Compound 63, N-[4-(3-Aminophenyl)-1,2,5-oxadiazol-3-yl]-3-(trifluoromethyl)benzamide] | 1.201 |  | 21.2 |  |  |  |
